Numbered stars: 1 amine (or outer) side, 2 acyl side, 3 side chain; on linkers, the order of the positions; unused ones are H or OH. Bridge positions count the residues as written; N and C are the ends. Square brackets hold non-standard residues; d marks the D form. Peptide text beside a SMILES is read from it. * marks the point of attachment. C20 diacid = O=C(O)CCCCCCCCCCCCCCCCCCC(=O)*; γGlu = O=C(O)[C@H](CCC(=O)[*:2])N[*:1]; NMeI = CC[C@H](C)[C@H](NC)C(=O)O; Sar = CNCC(=O)O
What was measured:
[1] = Assessment of chemical stability: normalized purity by RP-HPLC after incubation at 40 °C; format: physicochemical; conditions: normalized purity (T=0 set to 100), 0.2 mg/ml; for Chem. stability; 7 days, 40°C pH 4: pH 4, 7 days; for Chem. stability; 7 days, 40°C pH 7.5: pH 7.5, 7 days; for Chem. stability; 7 days, 40°C pH 9: pH 9, 7 days
In short: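 Peptides at 0.2 mg/ml in water adjusted to pH 4, 7.5 or 9, held at 40 °C for 7 days. Purity by RP-HPLC (C8/ammonium formate or C18/TFA gradients), UV 220 nm, as main-peak area-%; normalized to T=0 set as 100 for each pH.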

[2] = Pharmacokinetics of test compounds in mice; format: in vivo; conditions: female, NMRI, mouse, plasma; for bioavailability: AUCinf (sc) / AUCinf (iv) x 100, 100 nmol/kg (Pramlintide 400 nmol/kg); for half-life: 100 nmol/kg (Pramlintide 400 nmol/kg)
Experimental: NMRI mice (supplier: Taconic; females with a body weight of approximately 25 g) were given either a single subcutaneous (sc) bolus or a single intravenous (iv) bolus of each peptide to be tested.
Following sc administration of test peptide (Compound 176, 1 or 18) (100 nmol/kg), blood samples were drawn 0.5, 2, 4, 8, 18, 40 and 56 hours post-dosing by eye bleeding. Following iv administration of Compound 176, 1 or 18 (100 nmol/kg), blood samples were drawn 0.08, 0.17, 0.5, 2, 8, 18 and 30 hours post-dosing by eye bleeding. The dosing vehicle used for each test peptide was a mannitol-containing histidine buffer (pH 7.0).
Pramlintide (400 nmol/kg) was also administered as a single sc bolus or as a single iv bolus to mice. Following sc administration, blood samples were drawn 5, 15, 20, 30, 60, 120, 180 and 240 minutes post-dosing by sublingual bleeding. Following iv administration, blood samples were drawn 5, 10, 15, 30, 60, 120, 180, and 240 minutes post-dosing by sublingual bleeding. The dosing vehicle used for Pramlintide was a mannitol-containing acetate buffer (pH 4.0).
Blood samples were taken from two mice at each time point, i.e. 14-16 mice were included for each compound. The mice were euthanized immediately after blood sampling by cervical dislocation. Plasma samples were analyzed after solid-phase extraction (SPE) by liquid chromatography mass spectrometry (LC-MS/MS). Mean plasma concentrations were used for calculation of the pharmacokinetic parameters using the non-compartmental approach in Phoenix WinNonlin 6.3.
Plasma terminal elimination half-life (t½) was determined as In(2)/λz, where λz is the magnitude of the slope of the log linear regression of the log concentration versus time profile during the terminal phase.
Bioavailability was determined as AUCinf (sc) / AUCinf (iv) x 100, where AUCinf is the area under the plasma concentration - time curve extrapolated to infinity (AUCinf = AUClast + Clast/λz, where Clast is the last observed plasma concentration).

[3] = Pharmacokinetic (PK) profiling in rats; format: in vivo; conditions: male, Sprague Dawley, rat, plasma, single sc bolus, 100 nmol/kg (18, NN96), 20 nmol/kg (72, 76), 30 nmol/kg (73, 82, 118, 162, 166, 172); for CL/F: apparent clearance; for half-life: terminal elimination half-life, read-out: t½ (converted)
Experimental: Sprague Dawley male rats were given a single subcutaneous (sc) bolus of each peptide to be tested at doses as specified below..
Study A: Following the administration of a 100 nmol/kg dose of a test peptide of the invention (Compound 18) and a comparison pramlintide analogue NN96 (see Example 5, above), respectively, blood samples were drawn from the tail vein at 0.5, 3, 8, 15, 36, 60 and 81 hours post-dosing. 4 rats were used (2 rats per compound). The rats were euthanized immediately after the last blood sampling by overdose of O2/CO2.
Study B: 20 nmol/kg doses of Compound 72 and Compound 76, respectively, of the invention were administered. Blood samples were drawn by sublingual bleeding prior to dosing and at 2, 6, 12, 24, 48, 72 and 96 hours after dosing. 4 rats were used (2 rats per compound). The rats were euthanized immediately after the last blood sampling by overdose of O2/CO2.
Study C: 30 nmol/kg doses of Compound 73, Compound 82 and Compound 118, respectively, of the invention were administered. Blood samples were drawn from the tail vein prior to dosing and at 24, 48, 72 and 96 hours after dosing. Blood samples were taken from two rats at each time point, and only 2 blood samples were drawn from each rat, i.e. 8 rats were used for each compound. The rats were euthanized immediately after the last blood sampling by concussion and cervical dislocation.
Study D: 30 nmol/kg doses of Compound 162, Compound 166 and Compound 172 were administered. Blood samples were drawn from the tail vein prior to dosing and at 24, 48, 72, 96 and 168 hours after dosing. Blood samples were taken from two rats at each time point, and only 2 blood samples were drawn from each rat, i.e. 10 rats were used for each compound. The rats were euthanized immediately after the last blood sampling by concussion and cervical dislocation.
The dosing vehicle used for each test peptide was a mannitol-containing histidine buffer (pH 7.0). Plasma samples were analyzed after precipitation with ethanol by liquid chromatography mass spectrometry (LC-MS/MS). Mean plasma concentrations were used for calculation of the pharmacokinetic parameters using the non-compartmental approach in Phoenix WinNonlin 6.3.
Plasma terminal elimination half-life (t½) was determined as In(2)/λz, where λz is the magnitude of the slope of the log linear regression of the log concentration versus time profile during the terminal phase. Apparent clearance (CL/F) was determined as dose/AUCinf (sc), where AUCinf is the area under the plasma concentration vs. time curve extrapolated to infinity (AUCinf = AUClast + Clast/λz, where Clast is the last observed plasma concentration).

[4] = single iv bolus, read-out: t½ (hours) iv (converted)
[5] = single sc bolus, read-out: t½ (hours) sc (converted)

CC[C@H](C)[C@@H](C(=O)N[C@@H](CC(C)C)C(=O)N[C@@H](CO)C(=O)N[C@@H](CO)C(=O)N[C@H](C(=O)N[C@@H](CC(N)=O)C(=O)N[C@H](C(=O)NCC(=O)N[C@@H](CO)C(=O)N[C@@H](CC(N)=O)C(=O)N[C@H](C(=O)N1CCC[C@H]1C(N)=O)[C@@H](C)O)C(C)C)[C@@H](C)O)N(C)C(=O)[C@H](C)NC(=O)CN(C)C(=O)[C@H](Cc1ccccc1)NC(=O)[C@H](CC(N)=O)NC(=O)[C@H](CC(N)=O)NC(=O)[C@H](CO)NC(=O)[C@H](CO)NC(=O)[C@H](Cc1c[nH]cn1)NC(=O)[C@H](Cc1c[nH]cn1)NC(=O)[C@H](CC(C)C)NC(=O)[C@H](Cc1ccccc1)NC(=O)[C@H](CCC(=O)O)NC(=O)[C@H](C)NC(=O)[C@H](CC(C)C)NC(=O)[C@H](CCCNC(=N)N)NC(=O)[C@H](CCC(N)=O)NC(=O)[C@@H](NC(=O)[C@H](C)NC(=O)[C@@H]1CSSC[C@H](NC(=O)[C@H](CCCNC(=N)N)NC(=O)CC[C@H](NC(=O)CCCCCCCCCCCCCCCCCCC(=O)O)C(=O)O)C(=O)N[C@@H](CC(N)=O)C(=O)N[C@@H]([C@@H](C)O)C(=O)N[C@@H](C)C(=O)N[C@@H]([C@@H](C)O)C(=O)N1)[C@@H](C)O [Compound 1, [19CD]-isoGlu-RC()NTATC()ATQRLAEFLHHSSNNF-Gly(Me)-A-Ile(Me)-LSSTNVGSNTP-NH2] ({C20 diacid-γGlu}-RCNTATCATQRLAEFLHHSSNNF[Sar]A[NMeI]LSSTNVGSNTP-NH2; disulfide 2-7)
Chem. stability; 7 days, 40°C pH 4 [1]: 89 area-%
Chem. stability; 7 days, 40°C pH 7.5 [1]: 64 area-%
Chem. stability; 7 days, 40°C pH 9 [1]: 56 area-%
bioavailability [2]: 77%
half-life [2, 4]: 32.9 h
half-life [2, 5]: 34.6 h

CC[C@H](C)[C@@H](C(=O)N[C@@H](CC(C)C)C(=O)N[C@@H](CO)C(=O)N[C@@H](CO)C(=O)N[C@H](C(=O)N[C@@H](CC(N)=O)C(=O)N[C@H](C(=O)NCC(=O)N[C@@H](CO)C(=O)N[C@@H](CC(N)=O)C(=O)N[C@H](C(=O)N1CCC[C@H]1C(N)=O)[C@@H](C)O)C(C)C)[C@@H](C)O)N(C)C(=O)[C@H](C)NC(=O)CN(C)C(=O)[C@H](Cc1ccccc1)NC(=O)[C@H](CC(N)=O)NC(=O)[C@H](CC(N)=O)NC(=O)[C@H](CO)NC(=O)[C@H](CO)NC(=O)[C@H](CCCNC(=N)N)NC(=O)[C@H](Cc1c[nH]cn1)NC(=O)[C@H](CC(C)C)NC(=O)[C@H](Cc1ccccc1)NC(=O)[C@H](CCC(=O)O)NC(=O)[C@H](C)NC(=O)[C@H](CC(C)C)NC(=O)[C@H](CCCNC(=N)N)NC(=O)[C@H](CCC(N)=O)NC(=O)[C@@H](NC(=O)[C@H](C)NC(=O)[C@@H]1CSSC[C@H](NC(=O)[C@H](CCCNC(=N)N)NC(=O)CC[C@H](NC(=O)CCCCCCCCCCCCCCCCCCC(=O)O)C(=O)O)C(=O)N[C@@H](CC(N)=O)C(=O)N[C@@H]([C@@H](C)O)C(=O)N[C@@H](C)C(=O)N[C@@H]([C@@H](C)O)C(=O)N1)[C@@H](C)O [Compound 18, [19CD]-isoGlu-RC()NTATC()ATQRLAEFLHRSSNNF-Gly(Me)-A-Ile(Me)-LSSTNVGSNTP-NH2] ({C20 diacid-γGlu}-RCNTATCATQRLAEFLHRSSNNF[Sar]A[NMeI]LSSTNVGSNTP-NH2; disulfide 2-7)
CL/F [3]: 3.48 mL/h/kg
half-life [3]: 2260 min
bioavailability [2]: 79%
half-life [2, 4]: 20.8 h
half-life [2, 5]: 22.8 h

CC[C@H](C)[C@@H](C(=O)N[C@@H](CC(C)C)C(=O)N[C@H](CO)C(=O)N[C@@H](CO)C(=O)N[C@H](C(=O)N[C@@H](CC(N)=O)C(=O)N[C@H](C(=O)NCC(=O)N[C@@H](CO)C(=O)N[C@@H](CC(N)=O)C(=O)N[C@H](C(=O)N1CCC[C@H]1C(N)=O)[C@@H](C)O)C(C)C)[C@@H](C)O)N(C)C(=O)[C@H](C)NC(=O)CN(C)C(=O)[C@@H](Cc1ccccc1)NC(=O)[C@H](CC(N)=O)NC(=O)[C@H](CC(N)=O)NC(=O)[C@H](CO)NC(=O)[C@H](CO)NC(=O)[C@H](CCCNC(=N)N)NC(=O)[C@H](Cc1c[nH]cn1)NC(=O)[C@H](CC(C)C)NC(=O)[C@H](Cc1ccccc1)NC(=O)[C@H](CCC(=O)O)NC(=O)[C@H](C)NC(=O)[C@H](CC(C)C)NC(=O)[C@H](CCCNC(=N)N)NC(=O)[C@H](CCC(N)=O)NC(=O)[C@@H](NC(=O)[C@H](C)NC(=O)[C@@H]1CSSC[C@H](NC(=O)[C@H](CCCCN)NC(=O)CC[C@H](NC(=O)CCCCCCCCCCCCCCCCCCC(=O)O)C(=O)O)C(=O)N[C@@H](CC(N)=O)C(=O)N[C@@H]([C@@H](C)O)C(=O)N[C@@H](C)C(=O)N[C@@H]([C@@H](C)O)C(=O)N1)[C@@H](C)O [Compound 72, [19CD]-isoGlu-KC()NTATC()ATQRLAEFLHRSSNN-DPhe-Gly(Me)-A-Ile(Me)-L-DSer-STNVGSNTP] ({C20 diacid-γGlu}-KCNTATCATQRLAEFLHRSSNN[dF][Sar]A[NMeI]L[dS]STNVGSNTP-NH2; disulfide 2-7)
Chem. stability; 7 days, 40°C pH 4 [1]: 90 area-%
Chem. stability; 7 days, 40°C pH 7.5 [1]: 81 area-%
Chem. stability; 7 days, 40°C pH 9 [1]: 80 area-%
CL/F [3]: 2.7 mL/h/kg
half-life [3]: 1850 min

CC[C@H](C)[C@@H](C(=O)N[C@@H](CC(C)C)C(=O)N1CCC[C@H]1C(=O)N1CCC[C@H]1C(=O)N[C@H](C(=O)N[C@@H](CC(N)=O)C(=O)N[C@H](C(=O)NCC(=O)N[C@@H](CO)C(=O)N[C@@H](CC(N)=O)C(=O)N[C@H](C(=O)N1CCC[C@H]1C(N)=O)[C@@H](C)O)C(C)C)[C@@H](C)O)N(C)C(=O)CN(C)C(=O)[C@H](Cc1ccccc1)NC(=O)[C@H](CC(N)=O)NC(=O)[C@H](CC(N)=O)NC(=O)[C@H](CO)NC(=O)[C@H](CO)NC(=O)[C@H](Cc1c[nH]cn1)NC(=O)[C@H](Cc1c[nH]cn1)NC(=O)[C@H](CC(C)C)NC(=O)[C@H](Cc1ccccc1)NC(=O)[C@H](CCC(=O)O)NC(=O)[C@H](C)NC(=O)[C@H](CC(C)C)NC(=O)[C@H](CCCNC(=N)N)NC(=O)[C@H](CCC(N)=O)NC(=O)[C@@H](NC(=O)[C@H](C)NC(=O)[C@@H]1CSSC[C@H](NC(=O)[C@H](CCCNC(=N)N)NC(=O)CC[C@H](NC(=O)CCCCCCCCCCCCCCCCCCC(=O)O)C(=O)O)C(=O)N[C@@H](CC(N)=O)C(=O)N[C@@H]([C@@H](C)O)C(=O)N[C@@H](C)C(=O)N[C@@H]([C@@H](C)O)C(=O)N1)[C@@H](C)O [Compound 176, [19CD]-isoGlu-RC()NTATC()ATQRLAEFLHHSSNNF-Gly(Me)-Ile(Me)-LPPTNVGSNTP-NH2] ({C20 diacid-γGlu}-RCNTATCATQRLAEFLHHSSNNF[Sar][NMeI]LPPTNVGSNTP-NH2; disulfide 2-7)
bioavailability [2]: 81%
half-life [2, 4]: 24.4 h
half-life [2, 5]: 23.8 h

Source: EP3046573B1, “AMYLIN ANALOGUES” (Zealand Pharma A/S, priority 2013, dated 2015)
